For eight compounds, mortality, LC50 and Ratio results are on record in ChEMBL document CHEMBL3045918, “Synthesis, crystal structure, and insecticidal activities of highly congested hexahydroimidazo[1,2-a]pyridine derivatives: effect of conformation on activities” (2010).

Assay type in all cases: functional
For assay [1], the system named is Aphis craccivora. The assay is described as follows: Insecticidal activity against Aphis craccivora (cowpea aphid) in compound treated horsebean plant leaves assessed as mortality at 500 mg/L measured after 24 hr by leaf-dip method.
Assay [2] deals with Mythimna separata. Kind of assay: Insecticidal activity against second-instar larvae Mythimna separata (Oriental armyworm) in compound treated corn leaves assessed as mortality at 500 mg/L measured after 48 hr.
In assay [3] the test system is Aphis craccivora. Kind of assay: Insecticidal activity against Aphis craccivora (cowpea aphid) in compound treated horsebean plant leaves assessed as mortality measured after 24 hr by leaf-dip method.
Assay [4] concerns Mythimna separata. The assay is described as follows: Insecticidal activity against second-instar larvae Mythimna separata (Oriental armyworm) in compound treated corn leaves assessed as mortality measured after 48 hr.
For assay [5], the system named is Nilaparvata lugens. Kind of assay: Insecticidal activity against compound resistant second-instar larvae Nilaparvata lugens (brown planthopper) in compound rice seedlings assessed as toxicity at 25 degC measured after 6 days relative to control.
The subject of assay [6] is Nilaparvata lugens. Kind of assay: Insecticidal activity against compound sensitive second-instar larvae Nilaparvata lugens (brown planthopper) in compound rice seedlings assessed as toxicity at 25 degC measured after 6 days relative to control.
For assay [7], the system named is Nilaparvata lugens. The assay is described as follows: Insecticidal activity against compound sensitive second-instar larvae Nilaparvata lugens (brown planthopper) in compound rice seedlings assessed as mortality at 25 degC measured after 6 days. The settings on record: 144 h.
Assay [8] relates to Nilaparvata lugens. Kind of assay: Insecticidal activity against compound resistant second-instar larvae Nilaparvata lugens (brown planthopper) in compound rice seedlings assessed as mortality at 25 degC measured after 6 days. The settings on record: 144 h.

With `Cc1ccc([C@H]2C([N+](=O)[O-])=C3N(Cc4ccc(Cl)nc4)CCN3[C@H](c3ccc(C)s3)[C@@]2(C2=NCCN2Cc2ccc(Cl)nc2)[N+](=O)[O-])s1`, the mortality at 500 µg/mL in assay [1] turned out to be 100%; in assay [2] it was 0%.
For `O=[N+]([O-])C1=C2N(Cc3ccc(Cl)nc3)CCN2[C@H](c2cccs2)[C@@](C2=NCCN2Cc2ccc(Cl)nc2)([N+](=O)[O-])[C@H]1c1cccs1` the same measures were 85.6% and 0%.
Taken in the same sequence, the figures for `O=[N+]([O-])C1=C2N(Cc3ccc(Cl)nc3)CCN2[C@H](c2ccco2)[C@@](C2=NCCN2Cc2ccc(Cl)nc2)([N+](=O)[O-])[C@H]1c1ccco1` were 87% and 0%.
For the compound `Cc1ccc([C@@H]2C([N+](=O)[O-])=C3N(Cc4ccc(Cl)nc4)CCN3[C@H](c3ccc(C)s3)[C@@]2(C2=NCCN2Cc2ccc(Cl)nc2)[N+](=O)[O-])s1`, the mortality at 500 µg/mL in assay [1] and in assay [2] was 100% throughout. The figures for the LC50 in assay [3] and in assay [4] were 3.79 µM and 27.9 µM, respectively.
On to `Cc1ccc([C@@H]2C([N+](=O)[O-])=C3N(Cc4ccc(Cl)nc4)CCN3[C@H](c3ccc(C)o3)[C@@]2(C2=NCCN2Cc2ccc(Cl)nc2)[N+](=O)[O-])o1`, for which the mortality at 500 µg/mL in assay [1] and in assay [2] was 100% in each case. Besides, the LC50 came to 1.31 µM in assay [3] and 43 µM in assay [4].
In the case of `O=[N+]([O-])C1=C2N(Cc3ccc(Cl)nc3)CCN2[C@H](c2cccs2)[C@@](C2=NCCN2Cc2ccc(Cl)nc2)([N+](=O)[O-])[C@@H]1c1cccs1`, the mortality at 500 µg/mL in assay [1] and in assay [2] was 100% in each case. Further, the values for the median lethal concentration (LC50) in assay [3] and in assay [4] were 46.8 µM and 44.1 µM, respectively.
For `O=[N+]([O-])C1=C2N(Cc3ccc(Cl)nc3)CCN2[C@H](c2ccco2)[C@@](C2=NCCN2Cc2ccc(Cl)nc2)([N+](=O)[O-])[C@@H]1c1ccco1`, the mortality at 500 µg/mL in assay [1] and in assay [2] was 100% throughout. For the same compound, the Ratio is on record as 10.32 in assay [5] and 1.62 in assay [6]. In addition, the LC50 in assay [3] was found to be 4.43 µM; in assay [4], 26.5 µM; in assay [7], 1.07 µM; in assay [8] it was 3.76 µM.
Consider `O=[N+]([O-])/N=C1\NCCN1Cc1ccc(Cl)nc1` [IMIDACLOPRID], for which the mortality at 500 µg/mL in assay [1] and in assay [2] was 100% in each case. The Ratio in assay [5] and in assay [6] was 1 throughout. The LC50 in assay [3] is 35 µM; in assay [4], 125 µM; in assay [7] it was 1.73 µM; in assay [8], 38.8 µM.
